From ChEMBL document CHEMBL6182925 (J Med Chem, 2025)
≈ marks a conversion by molar mass, not a printed value.

Key:
[1] = molecular target: Hepatocyte growth factor receptor (Homo sapiens, UniProt P08581); assay: Inhibition of N-terminal GST-tagged wild-type human c-MET (956 to 1390 residues) extracted from baculovirus infected Sf21 cells using 5-FAM-KKKKEEIYFFF-CONH2 as substrate preincubated for 30 mins followed by ATP addition measured after 60 mins by fluorescence-based microfluidic mobility shift assay
Sequence of Hepatocyte growth factor receptor (P08581 whole entry, the tested form may be a part): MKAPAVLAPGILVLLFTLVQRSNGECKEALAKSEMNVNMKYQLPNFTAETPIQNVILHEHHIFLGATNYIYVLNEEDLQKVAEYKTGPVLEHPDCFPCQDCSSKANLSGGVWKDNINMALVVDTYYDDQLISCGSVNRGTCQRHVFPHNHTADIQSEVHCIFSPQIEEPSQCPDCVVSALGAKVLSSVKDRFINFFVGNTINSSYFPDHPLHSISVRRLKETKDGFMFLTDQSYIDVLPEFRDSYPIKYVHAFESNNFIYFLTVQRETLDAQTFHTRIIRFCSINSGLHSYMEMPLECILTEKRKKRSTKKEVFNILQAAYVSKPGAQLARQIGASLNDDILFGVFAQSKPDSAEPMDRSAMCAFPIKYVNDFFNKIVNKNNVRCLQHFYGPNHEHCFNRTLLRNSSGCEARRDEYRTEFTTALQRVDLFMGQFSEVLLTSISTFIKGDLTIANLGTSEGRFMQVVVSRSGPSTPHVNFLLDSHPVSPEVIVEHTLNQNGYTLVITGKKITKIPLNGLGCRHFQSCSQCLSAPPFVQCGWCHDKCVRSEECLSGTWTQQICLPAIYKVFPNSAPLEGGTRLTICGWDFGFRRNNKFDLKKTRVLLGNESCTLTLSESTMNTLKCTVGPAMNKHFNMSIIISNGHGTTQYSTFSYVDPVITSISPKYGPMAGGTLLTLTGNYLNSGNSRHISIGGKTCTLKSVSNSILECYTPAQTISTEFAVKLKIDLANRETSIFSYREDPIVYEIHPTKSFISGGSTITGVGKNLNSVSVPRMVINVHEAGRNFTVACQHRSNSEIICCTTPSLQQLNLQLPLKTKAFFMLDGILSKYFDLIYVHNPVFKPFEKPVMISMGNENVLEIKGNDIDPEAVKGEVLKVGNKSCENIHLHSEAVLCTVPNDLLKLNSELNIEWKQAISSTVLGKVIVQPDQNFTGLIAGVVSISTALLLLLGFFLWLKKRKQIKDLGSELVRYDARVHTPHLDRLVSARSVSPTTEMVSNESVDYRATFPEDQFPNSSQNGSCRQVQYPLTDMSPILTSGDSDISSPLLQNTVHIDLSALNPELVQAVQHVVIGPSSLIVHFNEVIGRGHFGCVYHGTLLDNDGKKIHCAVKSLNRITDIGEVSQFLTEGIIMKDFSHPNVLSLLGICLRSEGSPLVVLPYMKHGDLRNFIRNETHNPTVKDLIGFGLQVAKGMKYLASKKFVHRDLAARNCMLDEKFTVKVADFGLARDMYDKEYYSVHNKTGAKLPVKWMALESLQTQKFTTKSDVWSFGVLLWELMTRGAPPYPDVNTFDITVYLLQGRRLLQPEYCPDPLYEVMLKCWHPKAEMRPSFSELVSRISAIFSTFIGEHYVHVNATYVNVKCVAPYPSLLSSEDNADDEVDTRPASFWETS

[2] = Kinetic solubility of compound at pH 2; type: physicochemical; conditions: buffer, read-out: Kinetic_solubility
[3] = molecular target: T1, Alpha-2A adrenergic receptor (Homo sapiens) (UniProt P08913); assay: Inhibition of alpha 2A adrenergic receptor (unknown origin) at 10 uM by CEREP analysis relative to control
T1 sequence (whole entry): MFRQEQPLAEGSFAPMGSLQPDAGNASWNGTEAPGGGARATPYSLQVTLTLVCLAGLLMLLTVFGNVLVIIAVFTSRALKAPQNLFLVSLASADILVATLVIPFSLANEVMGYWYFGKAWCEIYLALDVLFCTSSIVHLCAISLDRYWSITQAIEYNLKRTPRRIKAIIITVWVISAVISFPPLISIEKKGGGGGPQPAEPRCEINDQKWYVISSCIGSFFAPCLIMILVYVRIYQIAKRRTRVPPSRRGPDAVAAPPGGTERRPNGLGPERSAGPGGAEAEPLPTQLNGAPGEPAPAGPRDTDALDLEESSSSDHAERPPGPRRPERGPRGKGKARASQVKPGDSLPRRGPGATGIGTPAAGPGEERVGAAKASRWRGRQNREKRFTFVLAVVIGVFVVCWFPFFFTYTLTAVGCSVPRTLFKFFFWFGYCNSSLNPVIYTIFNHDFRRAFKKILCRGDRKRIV

[4] = molecular target: 5-hydroxytryptamine receptor 1B (Homo sapiens) (UniProt P28222); assay: Inhibition of 5-HT1B receptor (unknown origin) at 10 uM by CEREP analysis relative to control
Sequence of 5-hydroxytryptamine receptor 1B (Homo sapiens) (P28222 whole entry): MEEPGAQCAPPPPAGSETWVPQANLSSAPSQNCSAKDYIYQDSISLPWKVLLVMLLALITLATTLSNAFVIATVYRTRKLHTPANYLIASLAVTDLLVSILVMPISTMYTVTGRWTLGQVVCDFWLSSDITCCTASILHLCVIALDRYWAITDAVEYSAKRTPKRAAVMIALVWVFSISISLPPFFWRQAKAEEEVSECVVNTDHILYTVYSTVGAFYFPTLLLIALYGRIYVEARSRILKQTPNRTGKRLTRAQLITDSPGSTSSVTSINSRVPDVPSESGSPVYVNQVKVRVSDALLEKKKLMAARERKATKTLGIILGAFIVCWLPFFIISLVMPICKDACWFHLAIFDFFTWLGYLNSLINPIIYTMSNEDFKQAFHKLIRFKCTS

[5] = molecular target: 5-hydroxytryptamine receptor 2B (Homo sapiens) (UniProt P41595); assay: Inhibition of 5-HT2B receptor (unknown origin) at 10 uM by CEREP analysis relative to control
Sequence of 5-hydroxytryptamine receptor 2B (Homo sapiens) (P41595 whole entry): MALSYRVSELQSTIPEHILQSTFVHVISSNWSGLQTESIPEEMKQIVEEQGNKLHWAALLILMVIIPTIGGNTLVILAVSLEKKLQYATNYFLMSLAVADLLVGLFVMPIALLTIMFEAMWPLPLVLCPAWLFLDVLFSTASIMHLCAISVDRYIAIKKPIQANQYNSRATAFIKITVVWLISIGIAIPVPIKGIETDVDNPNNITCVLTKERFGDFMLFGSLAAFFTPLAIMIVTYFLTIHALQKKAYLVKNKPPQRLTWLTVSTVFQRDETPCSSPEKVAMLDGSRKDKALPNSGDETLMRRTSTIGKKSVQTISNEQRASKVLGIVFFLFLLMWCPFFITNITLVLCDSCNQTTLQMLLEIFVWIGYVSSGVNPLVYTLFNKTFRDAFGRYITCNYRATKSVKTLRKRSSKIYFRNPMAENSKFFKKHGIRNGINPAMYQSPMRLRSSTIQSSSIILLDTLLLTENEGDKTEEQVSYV

Homo sapiens [6] = species: Homo sapiens; assay: Inhibition of sodium channel site 2 (unknown origin) at 10 uM by CEREP analysis relative to control
L-type calcium channel = L-type calcium channel (Homo sapiens, UniProt O60840+Q01668+Q13698+Q13936); assay: Inhibition of Calcium channel L-type (unknown origin) at 10 uM by CEREP analysis relative to control; type: protein assay
[7] = AUClast in Balb/c mouse at 10 mg/kg, po; type: ADME, organism-based; conditions: in vivo
[8] = Clearance in male Sprague-Dawley rat at 3 mg/kg, iv; type: ADME, organism-based; conditions: in vivo
[9] = Oral bioavailability in male Sprague-Dawley rat at 10 mg/kg; type: ADME, organism-based; conditions: in vivo
[10] = Clearance in male Beagle dog at 1 mg/kg, iv; type: ADME, organism-based, Canis lupus familiaris; conditions: in vivo
[11] = AUClast in male Beagle dog at 10 mg/kg, po; type: ADME, organism-based, Canis lupus familiaris; conditions: in vivo
AhR = AhR (Homo sapiens, UniProt P35869); assay: Induction of AhR (unknown origin) assessed as fold increase in activity at 1 uM relative to control; type: toxicity; conditions: read-out: FC
Sequence of AhR (P35869 whole entry): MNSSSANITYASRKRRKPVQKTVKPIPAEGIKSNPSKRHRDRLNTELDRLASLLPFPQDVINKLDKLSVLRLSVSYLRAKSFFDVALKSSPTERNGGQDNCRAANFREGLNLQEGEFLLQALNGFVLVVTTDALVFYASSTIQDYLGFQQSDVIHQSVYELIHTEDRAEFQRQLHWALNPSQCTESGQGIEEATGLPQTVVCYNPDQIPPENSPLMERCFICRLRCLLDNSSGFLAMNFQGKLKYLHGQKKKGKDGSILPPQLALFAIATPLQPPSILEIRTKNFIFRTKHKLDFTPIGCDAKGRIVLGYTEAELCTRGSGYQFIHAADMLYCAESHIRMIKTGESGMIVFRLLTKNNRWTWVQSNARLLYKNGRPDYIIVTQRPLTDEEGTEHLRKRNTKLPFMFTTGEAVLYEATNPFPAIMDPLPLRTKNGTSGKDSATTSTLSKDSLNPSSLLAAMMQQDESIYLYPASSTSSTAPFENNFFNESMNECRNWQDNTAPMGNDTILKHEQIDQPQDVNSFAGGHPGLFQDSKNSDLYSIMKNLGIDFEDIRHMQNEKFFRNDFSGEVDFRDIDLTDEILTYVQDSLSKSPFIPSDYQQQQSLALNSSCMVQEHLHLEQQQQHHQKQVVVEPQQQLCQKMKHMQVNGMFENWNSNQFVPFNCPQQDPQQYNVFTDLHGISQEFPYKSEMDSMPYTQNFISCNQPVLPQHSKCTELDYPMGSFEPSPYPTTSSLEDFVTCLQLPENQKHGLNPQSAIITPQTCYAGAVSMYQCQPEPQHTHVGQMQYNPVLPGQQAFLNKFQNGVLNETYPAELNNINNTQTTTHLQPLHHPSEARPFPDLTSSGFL

Homo sapiens [12] = species: Homo sapiens; assay: Inhibition of c-MET D1228 mutant (unknown origin) at 100 nM in presence of ATP by HotSpot Kinome Selectivity analysis
Homo sapiens [13] = species: Homo sapiens; assay: Inhibition of c-MET L1195X/F1200X mutant (unknown origin) at 100 nM in presence of ATP by HotSpot Kinome Selectivity analysis
[14] = Toxicity in athymic BALB/c nude mouse xenografted with human LU2503 cells assessed as body weight loss at 2 to 60 mg/kg, po bid treated for 10 to 21 days; type: organism-based; conditions: in vivo, dose lower 2 mg/kg, time lower 10 day, dose upper 60 mg/kg, time upper 21 day
[15] = Toxicity in athymic BALB/c nude mouse allografted with mouse BaF3 cells harboring TPR-D1228N mutant assessed as body weight loss at 2 to 60 mg/kg, po bid treated for 10 to 21 days; type: organism-based; conditions: in vivo, dose lower 2 mg/kg, time lower 10 day, dose upper 60 mg/kg, time upper 21 day
[16] = Antitumor activity against human LU2503 cells xenografted in athymic BALB/c nude mouse at 20 mg/kg, po bid treated for 14 days relative to control; type: functional; conditions: LU2503, 336 h, time 14 day, read-out: TGI
EBC-1 [17] = assay: Antitumor activity against human EBC-1 cells xenografted in athymic BALB/c nude mouse at 2 mg/kg, po bid treated for 21 days relative to control; type: functional; conditions: EBC-1, 504 h, time 21 day, read-out: TGI
EBC-1 [18] = assay: Antitumor activity against human EBC-1 cells xenografted in athymic BALB/c nude mouse at 20 mg/kg, po bid treated for 21 days relative to control; type: functional; conditions: EBC-1, 504 h, time 21 day, read-out: TGI
BaF3 [19] = assay: Antitumor activity against mouse BaF3 cells harboring TPR-D1228N mutant cells allografted in athymic BALB/c nude mouse at 2 mg/kg, po bid treated for 10 days relative to control; type: functional; conditions: BaF3, 240 h, time 10 day, read-out: TGI
BaF3 [20] = assay: Antitumor activity against mouse BaF3 cells harboring TPR-D1228N mutant cells allografted in athymic BALB/c nude mouse at 60 mg/kg, po bid treated for 10 days relative to control; type: functional; conditions: BaF3, 240 h, time 10 day, read-out: TGI
[21] = AUCfree in dog measured for 28 days; type: ADME, Canis lupus familiaris; conditions: in vivo, 672 h, time 28 day
[22] = Toxicity in dog assessed as drug tolerance measured for 28 days; design: species or system Canis lupus familiaris; conditions: in vivo, 672 h, time 28 day
BaF3 [23] = assay: cells; conditions: Mus musculus, BaF3, 72 h
BaF3 [24] = assay: cells; conditions: Mus musculus, BaF3, 72 h; remark: listed apart in the source
BaF3 [25] = assay: cells; conditions: Mus musculus, BaF3, 72 h; remark: listed apart in the source
BaF3 [26] = assay: cells; conditions: Mus musculus, BaF3, 72 h; remark: listed apart in the source
BaF3 [27] = assay: cells; conditions: Mus musculus, BaF3, 72 h; remark: listed apart in the source
BaF3 [28] = assay: cells; conditions: Mus musculus, BaF3, 72 h; remark: listed apart in the source

COc1cc2nccc(Oc3c(F)cc(NC(=O)c4cnccc4OC)cc3F)c2cc1O[C@@H](C)CO
IC50 [1]: 0.2 nM
solubility kinetic [2]: 288 µM (≈ 147 µg/mL)
inhibition [3]: 6%
inhibition [4]: -3%
inhibition [5]: 48%
inhibition (Homo sapiens [6]): 40%
inhibition at 10 µM (L-type calcium channel): -4%
AUC(0-t) [7]: 13500 ng·h/mL
clearance [8]: 11.2 mL/min/kg
bioavailability [9]: 100%
clearance [10]: 3.5 mL/min/kg
AUC(0-t) [11]: 26400 ng·h/mL
fold induction at 1 µM (AhR): < 1.5
inhibition (Homo sapiens [12]): 0%
inhibition (Homo sapiens [13]): -4%
Activity [14]: Non-toxic
Activity [15]: Non-toxic
inhibition in vivo at 20 mg/kg [16]: 110%
inhibition in vivo at 2 mg/kg (EBC-1 [17]): 25%
inhibition in vivo at 20 mg/kg (EBC-1 [18]): 88%
inhibition in vivo at 2 mg/kg (BaF3 [19]): 26%
inhibition in vivo at 60 mg/kg (BaF3 [20]): 128%
fAUC [21]: 5100 ng·h/mL
Activity [22]: Non-toxic
EC50 (BaF3 [23]): 2.5 nM
EC50 (BaF3 [24]): 13 nM
EC50 (BaF3 [25]): 9.1 nM
EC50 (BaF3 [26]): 8.6 nM
EC50 (BaF3 [27]): 538 nM
EC50 (BaF3 [28]): 19 nM
